Consider 1 molecule from patent US3992535A, “4-Hydroxy-2H-naphtho[2,1-e]-1,2-thiazine-3-carboxamide-1,1-dioxides and salts thereof” (priority 1974, dated 1976).

The test system of data set [1] is thrombocyte aggregation in the platelet-rich plasma of healthy human donors. Put plainly: Born test; collagen aggregation. The class given is cell-based. As for the experimental part:
b. […] The rate of decline of the optical density of platelet suspensions was measured and recorded photometrically after the addition of commercial collagen. From the angle of inclination of the density curve, the rate of aggregation was estimated. The optical density was taken at the point on the curve where most light was transmitted. The amount of collagen was chosen such that an irreversible control curve was obtained. The results were expressed in terms of the optical density and represent the percentage change in light transmission (= % diminution of the aggregation) caused by the test compound compared with the untreated control.

The subject of data set [2] is platelet stickiness in human citrate blood. Put plainly: Morris test (platelet stickiness, retention on glass beads). It is filed as cell-based. The note with it: Platelet, 10 min; 10^-^4 mol/liter, human citrate blood; read-out: Morris test (percentage reduction in the stickiness). As for the experimental part:
The principle of the Morris test is described in "Stoffwechsel- and Membranpermeabilitat von Erythrozyten und Thrombozyten, I. Int.
1 ml of human citrate blood was pipetted into each of a number of small test tubes, the test compound was added in the desired concentrations, and the tubes were incubated at 37° C for 10 minutes. 2 gm each of glass beads (about 100 mesh) were added to half of the tubes. The tubes, stoppered by means of a plastic plug, were attached to a vertical wheel and rotated for 45 seconds end-over-end. The same tubes were then left to stand at ambient temperature for a further hour, after which time a sedimentation of erythrocytes and glass beads had taken place. 0.01 ml of the supernatant plasma was removed and diluted with 1:800 celloscope solution. The platelet count was read in a celloscope. The percentage of the thrombocytes retained in the sediment (adhering to the glass beads or aggregating) was calculated from the difference of the thrombocyte counts with and without glass contact.
The results were expressed in terms of the percentage reduction in the stickiness compared with the control (without addition of test compound).

For data set [3], the system named is kaolin- and carrageenin-induced edemas. Put plainly: Kaolin and carrageenin edema combined: average ED35 and therapeutic ratio LD50/ED35. It is filed as in vivo. As for the experimental part: (§1) The kaolin edema was induced according to the method of Hillebrecht [Arzneimittel-Forsch. 4, 607 (1954] by subplantar injection of 0.05 ml of a 10% suspension of kaolin in an aqueous 0.85% sodium chloride solution. Measurement of the thickness of the paws was effected using the technique of Doepfner and Cerletti [Int. Arch. Allergy Immunol. 12, 89 (1958)]. The test compound was administered perorally by means of an esophageal tube to male FW 49-rats having an average body weight of 120 to 150 gm 30 minutes before inducing the edema. 5 hours after the provocation of the edema, the average size of the swelling in the rats treated with the test compound was compared with the average size of the swelling in the control animals treated by a dummy procedure. By graphical extrapolation, the dose leading to a 35% reduction of the swelling (ED35) was calculated from the percentage reduction in the size of the swelling caused by the administration of different doses.
(§2) The provocation of the carrageenin edema was effected according to the method of Winter et al [Proc. Soc. exp. Biol. Med. 111, 544 (1962)] by subplantar injection of 0.05 ml of a 1% solution of carrageenin in an aqueous 0.85% solution of sodium chloride. The test compound was administered 60 minutes before the provocation of the edema.
(§3) For the calculation of the reductive effect on the edema, the size of the swelling was measured 3 hours after the provocation of the edema. All the other details were the same as described above in the case of the kaolin edema.
The therapeutic index (a measure of the therapeutic usefulness) was calculated as the quotient of the oral LD50 value and the ED35 value derived from the tests to determine the antiexsudative activity against kaolin- and carrageenininduced edemas.

Data set [4] deals with adjuvant arthritis in the rat. The experiment in a line: Adjuvant arthritis in the rat. The class given is in vivo. As for the experimental part:
d. Adjuvant arthritis in the rat: The adjuvant arthritis tests in rats were carried out according to the method of Rosenthale and Nagra [Proc. Soc. exp. Biol. 125, 149 (1967)]. […] The test compound was administered once a day, starting with the day of the M. butyricum-injection, for a period of 20 days by means of an esophageal tube. […] An ED50 was determined graphically from the reduction of the swelling caused by the administration of different doses.

Data set [5] has as its system carrageenin-induced edema of the hind paw of the rat. Put plainly: Carrageenin edema of the back paw of the rat. It is filed as in vivo. The note with it: per os, 60 minutes before edema, swelling at 3 hours. How it is done:
(§4) Compound A and known compound B were tested to determine their actue antiexsudative effect on the kaolin-induced edema and the carrageenin-induced edema of the hind paw of the rat and their acute toxicity after oral administration in rats.
b. Carrageenin edema of the back paw of the rat:
as §2, §3
(In the carrageenan paw model, swelling and tenderness develop within hours.)

Data set [6] concerns kaolin-induced edema of the hind paw of the rat. The experiment in a line: Kaolin edema of the hind paw of the rat. The class given is in vivo. Conditions: per os, 30 minutes before edema, 35% reduction of swelling at 5 hours. How it is done:
as §4
a. Kaolin edema of the hind paw of the rat:
as §1

The test system of another data set is rat. Put plainly: Acute toxicity in the rat, oral. It is filed as in vivo. The note with it: per os, vs compound E. As for the experimental part: (§5) The test compound was administered in the form of a trituration in tylose.
(§6) The calculation of the LD50 values was effected, to the extent possible, according to the method of Litchfield and Wilcoxon, based on the percentage of animals which died within 14 days after administration of the different doses.

Data set [7] in a line: Acute toxicity in the rat, oral. It is filed as in vivo. Conditions: in vivo, po, per os, male and female FW 49-rats, within 14 days. How it is done: as §5, §6

One may read the ED50 as the dose at which the effect has come halfway, by size or by number of responders. For orientation: LD50 means the dose expected to kill half of the subjects tested. A higher LD50 goes with a less toxic substance.

SMILES strings stand for the structures.

Take `CN1C(C(=O)Nc2nccs2)=C(O)c2ccc3ccccc3c2S1(=O)=O` [Compound A, 4-Hydroxy-2-methyl-N-(2-thiazolyl)-2H-naphtho[2,1-e]-1,2-thiazine-3-carboxamide-1,1-dioxide]: the inhibition at 100 µM in data set [1] (Homo sapiens, 10^-^4 mol/liter, read-out: Born test (% diminution of the aggregation)) was 96%; in data set [2] it was 43%. In addition, the inhibition at 10 µM in data set [1] (Homo sapiens, 10^-^5 mol/liter, read-out: Born test (% diminution of the aggregation)) was 95%. Besides, in data set [1] (Homo sapiens, 10^-^6 mol/liter, read-out: Born test (% diminution of the aggregation)), the inhibition at 1 µM stood at 92%. For the same molecule, the inhibition at 0.1 µM in data set [1] (Homo sapiens, 10^-^7 mol/liter, read-out: Born test (% diminution of the aggregation)) was 65%. Further, in data set [1] (vs compound E (sudoxicam)), the “50% diminution of the aggregation: times lower concentration than compound E” value is on record as “at least 10 times lower”. Moreover, the “inhibiting effect on the thrombocyte aggregation compared with compound E (in words)” value in data set [1] (vs compound E (sudoxicam)) was “significantly stonger”. For the same molecule, the ED35 in data set [3] (Rattus norvegicus, read-out: Average value ED35) was 12.2 mg/kg; in data set [5], 11 mg/kg; in data set [6], 13.5 mg/kg. Besides, the “Therapeutic ratio: ratio of toxic and anti-exsudative activity LD50 / ED35” value in data set [3] (oral LD50 / average ED35, rat) stood at 16.9. Besides, the “therapeutic ratio relative to known compound B” value in data set [3] (vs compound B (indomethacin)) is “twice as great”. For the same molecule, the “activity against adjuvant arthritis (in words)” value in data set [4] is listed as “surprisingly strong activity”. For the same molecule, the ED50 in data set [4] (po, 504 h, per os, once a day for 20 days, paw volume on 21st day, read-out: Adjuvant arthritis in the rat ED50 per os (average value of primary and secondary reaction)) was less than 2 mg/kg. Moreover, the “activity against adjuvant arthritis compared with phenylbutazone (D) (in words)” value in data set [4] (vs phenylbutazone (D)) is “far superior”. Further, the “toxicity compared with compound E (in words)” value with rat is “less toxic”. For the same molecule, the LD50 at 336 h in data set [7] came out at 207 mg/kg.
